The subject of series [1] is IFN-γ production by immunocompetent cells (spleen cells). Briefly: Effect of cyanine dye on IFN-γ production (ex vivo: oral dosing of mice, spleen cells cultured with lipopolysaccharide, ELISA). The series is classed as in vivo, BALB/c female mice. The note with it: for IFN-γ Production: once a day over three days, spleen cells 1×10^6 cells/ml, 5 μg/ml lipopolysaccharide, 72 hours. How it is done: The following explains the effect of the cyanine dyes on INF-γ production by immunocompetent cells based on ex vivo experiment using mice as an experimental animal.
(§1) Twenty-five of 10-week-old BALB/c female mice were divided into five groups. A powder consisting of one part by weight of “NK-4”, a cyanine dye represented by Chemical Formula 1 produced by Hayashibara Biochemical Laboratories, Inc., Okayama, Japan, and 200 parts by weight of sodium bicarbonate was prepared. Then, the mixture was dissolved in physiological saline to give a concentration of 20 mg/ml. Successively, the solution was diluted to give different concentrations as indicated in Table 1 with 20 mg/ml of sodium bicarbonate aqueous solution for administration to the mice. The dilutions were orally administered to the mice in four groups once a day over three days.
Spleens were respectively extracted from the mice in each group, minced and suspended in a usual manner in the art to give the spleen cell suspension. The cell suspensions were collected and diluted in RPMI medium (pH 7.2), supplemented with 10% (v/v) calf serum […] and containing 10 mM HEPES (N-2-hydroxyethylpiperadine-N′-2-ethanesulfonic acid) and 5 μg/ml lipopolysaccharide, to give a concentration of 1×10^6 cells/ml, and were cultured at 37° C. for 72 hours. IFN-γ was measured by conventional enzyme-linked immunosorbent assay (ELISA). As a control, the mice of the group with no cyanine dye were treated similarly as above. The measured values of IFN-γ were converted into international units (IU) with reference to the standard mouse IFN-γ (Gg02-901-533) obtained form National institute of Health, U.S.A., as an IFN-γ standard.

Series [2] relates to mice. The experiment in a line: Observation of the mice administered with the cyanine dye (death, condition, side effects). The series is classed as in vivo. How it is done: as §1
The nature of series [3]: LD50 of the cyanine dye. The series is classed as in vivo.

The values below come from US20080064722A1, “AGENT FOR PROMOTING INTERFERON-Y PRODUCTION” (KABUSHIKI KAISHA HAYAHIBARA SEIBUTSU KAGAKU KENKYU, priority 2001, published 2008).

Each structure is given as a SMILES string.

As to `CCN1C=CC(=CC=C(C=Cc2cc[n+](CC)c3ccccc23)c2cc[n+](CC)c3ccccc23)c2ccccc21` [NK-4], the “IFN-γ Production” value is 1.2 IU/ml in series [1] (dose 1 μg/kg body weight), 2.2 IU/ml in series [1] (dose 10 μg/kg body weight), 2.3 IU/ml in series [1] (dose 100 μg/kg body weight) and 2.8 IU/ml in series [1] (dose 1,000 μg/kg body weight). Moreover, in series [1] (dose 1,000 μg/kg body weight, control 0.4 IU/ml), the “IFN-γ production relative to that of the control group” value is on record as “sevenfold”. Moreover, the “Serious side effect such as symptom of poisoning” value in series [2] (directly applied to living bodies) is “did not cause any serious side effect”. Besides, in series [2] (mouse, in vivo, po), the “Condition of mice (hair complexion, appetite, motility)” value is “good conditions of hair complexion, appetite, and motility”. For the same molecule, in series [2] (oral, 1 to 1,000 μg/kg body weight, once a day over three days), the Death of mice result was “did not die”.

Consider `CCCCCCCN1C(C)=CS\C1=C/C=C(/C=C/c1scc(C)[n+]1CCCCCCC)c1scc(C)[n+]1CCCCCCC` [Chemical Formula 2], for which the LD50 was 54 mg/kg body weight in series [3] (intraperitoneal administration) and 1.5 g/kg body weight in series [3] (oral administration).
